Results on four compounds are retold here after patent US20250032623A1, “HETEROBIFUNCTIONAL COMPOUNDS AND THEIR USE IN TREATING DISEASE” (HALDA THERAPEUTICS OPCO, INC., priority 2021, published 2025).

Assay [1] addresses T1, full-length CDK9 (amino acids 1-372; Accession Number NP_001252.1) (Homo sapiens, UniProt P50750).
T1 construct: full-length CDK9 (amino acids 1-372); purchased; host or cells: bacteria (E. coli, BL21-derived, T7 phage)
The assay can be described thus: KdELECT binding assay, CDK9. Here is the method:
Exemplary compounds were tested for ability to bind to full-length CDK9 (amino acids 1-372; Accession Number NP_001252.1) expressed from bacteria. Compounds were tested using a KdELECT assay.
Kinase-tagged T7 phage strains were prepared in an E. coli host derived from the BL21 strain. E. coli were grown to log-phase and infected with T7 phage and incubated with shaking at 32° C. until lysis. The lysates were centrifuged and filtered to remove cell debris. The remaining kinases were produced in HEK-293 cells and subsequently tagged with DNA for qPCR detection. Streptavidin-coated magnetic beads were treated with biotinylated small molecule ligands for 30 minutes at room temperature to generate affinity resins for kinase assays. The liganded beads were blocked with excess biotin and washed with blocking buffer (SeaBlock (Pierce), 1% BSA, 0.05% Tween 20, 1 mM DTT) to remove unbound ligand and to reduce non-specific binding. Binding reactions were assembled by combining kinases, liganded affinity beads, and test compounds in 1× binding buffer (20% SeaBlock, 0.17×PBS, 0.05% Tween 20, 6 mM DTT). Test compounds were prepared as 111× stocks in 100% DMSO. Kd values were determined using an 11-point 3-fold compound dilution series with three DMSO control points. All compounds for Kd measurements are distributed by acoustic transfer (non-contact dispensing) in 100% DMSO. The compounds were then diluted directly into the assays such that the final concentration of DMSO was 0.9%. All reactions performed in polypropylene 384-well plate. Each was a final volume of 0.02 mL. The assay plates were incubated at room temperature with shaking for 1 hour and the affinity beads were washed with wash buffer (1×PBS, 0.05% Tween 20). The beads were then re-suspended in elution buffer (1×PBS, 0.05% Tween 20, 0.5 μM nonbiotinylated affinity ligand) and incubated at room temperature with shaking for 30 minutes. The kinase concentration in the eluates was measured by qPCR.

Assay [2] concerns the target T2, KRAS G12C (Homo sapiens, UniProt P01116, G12C).
T2 construct: Kras (aa 2-169), GST; purchased Reaction Biology Corporation (RBC)
In words: KRAS G12C nucleotide exchange assay (SOS1 mediated, HTRF). The format is biochemical. The conditions noted are these: 1 hr pre-incubation at RT, read-out: IC50 (inhibition of KRas G12C). The method, boiled down: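 HTRF nucleotide exchange using KRAS G12C mixed with anti-GST Tb antibody and pre-incubated with compound for 1 h at RT. Exchange was started with SOS1 plus labelled GTP. Compounds ran as 10-point, 3-fold dilutions from 10 μM, with no-SOS1 or top concentration as blank and IC50 from a variable-slope sigmoidal fit.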
A general note: Time-resolved FRET reads energy transfer from a long-lived donor to a nearby acceptor.

Assay [3] concerns HeLa cells. In words: Cellular growth inhibition assay (CellTiter-Glo), HeLa cells. The class given is cell-based. The conditions noted are these: Homo sapiens, 72 h, three days compound treatment, CellTiter-Glo 2.0, read-out: CTG HELA GI50. Summed up:
(§1)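 GI50 derived by four-parameter regression of luminescence (CellTiter-Glo 2.0) at Day 0 and Day 3, normalized to DMSO wells. Cells (HeLa, HEK293; 500/well, DMEM plus 10% FBS) were dosed with compound dilutions 24 h post-seeding and exposed for three days at 37 °C.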

Assay [4] has as its system HEK293 cells. The assay can be described thus: Cellular growth inhibition assay (CellTiter-Glo), HEK293 cells. The format is cell-based. Particulars: Homo sapiens, 72 h, three days compound treatment, CellTiter-Glo 2.0, read-out: CTG HEK293 GI50. The method, boiled down:
as §1
On the technique in general: ATP-based viability assays read luminescence as a measure of living cells.

In assay [5] the target is T3, EGFR WT (amino acids 669-1011, Accession Number NP_005219.2) (Homo sapiens, UniProt P00533).
T3 construct: purchased Eurofins Discovery; host or cells: bacteria (E. coli, BL21-derived, T7 phage)
T3 sequence (P00533 669-1011): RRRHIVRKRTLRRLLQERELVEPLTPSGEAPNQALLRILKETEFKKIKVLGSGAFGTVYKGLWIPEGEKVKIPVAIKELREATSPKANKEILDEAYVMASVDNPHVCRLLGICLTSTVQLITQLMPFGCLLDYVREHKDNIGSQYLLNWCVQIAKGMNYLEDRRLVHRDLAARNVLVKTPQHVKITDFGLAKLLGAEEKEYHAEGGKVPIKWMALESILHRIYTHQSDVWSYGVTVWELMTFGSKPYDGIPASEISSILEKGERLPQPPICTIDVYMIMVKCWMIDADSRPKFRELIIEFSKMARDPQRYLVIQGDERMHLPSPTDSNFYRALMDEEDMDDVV
In words: KdELECT binding assay (Eurofins Discovery), EGFR WT. The method, boiled down:
(§2)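 Competition binding: WT kinase as T7 phage fusion from E. coli, T790M/L858R produced in HEK-293 and DNA-tagged, incubated 1 h at room temperature with immobilized ligand beads and compound (11-point 3-fold series, 0.9% DMSO). Bead-bound kinase eluted and quantified by qPCR to derive Kd.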

For assay [6], the target named is T4, EGFR T790M, L858R (amino acids 669-1011 Accession Number NP_005219.2) (Homo sapiens, UniProt P00533, L858R/T790M).
T4 construct: purchased Eurofins Discovery; host or cells: mammalian cells (HEK-293)
T4 sequence (P00533 669-1011 T790M/L858R): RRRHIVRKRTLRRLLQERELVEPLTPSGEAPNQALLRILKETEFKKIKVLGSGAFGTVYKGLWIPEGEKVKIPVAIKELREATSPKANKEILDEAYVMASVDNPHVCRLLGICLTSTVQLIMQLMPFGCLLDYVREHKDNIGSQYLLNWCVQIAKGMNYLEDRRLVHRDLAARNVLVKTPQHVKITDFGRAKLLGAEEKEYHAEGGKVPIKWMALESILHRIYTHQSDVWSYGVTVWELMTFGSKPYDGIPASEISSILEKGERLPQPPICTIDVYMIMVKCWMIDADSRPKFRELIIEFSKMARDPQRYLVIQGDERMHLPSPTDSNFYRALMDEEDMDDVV
The assay can be described thus: KdELECT binding assay (Eurofins Discovery), EGFR T790M, L858R. The conditions noted are these: read-out: EGFR DM Kd. Summed up: as §2

Assay [7] addresses T5, EGFR (Homo sapiens, UniProt P00533).
T5 construct: purchased
In words: KdELECT binding assay, EGFR. The method, boiled down:
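Competition binding: DNA- or T7 phage-tagged EGFR was incubated 1 h at room temperature with immobilized ligand beads and an 11-point 3-fold compound series (0.9% DMSO final). Bead-bound kinase was eluted and quantified by qPCR to derive Kd.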

T2 sequence (P01116 2-169 isoform P01116-2 G12C): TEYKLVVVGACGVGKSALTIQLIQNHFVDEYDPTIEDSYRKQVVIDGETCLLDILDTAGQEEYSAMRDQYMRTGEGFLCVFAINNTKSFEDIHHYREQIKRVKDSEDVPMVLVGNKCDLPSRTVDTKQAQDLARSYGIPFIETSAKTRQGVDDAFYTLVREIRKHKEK
T1 sequence (P50750 whole entry, the tested form may be a part): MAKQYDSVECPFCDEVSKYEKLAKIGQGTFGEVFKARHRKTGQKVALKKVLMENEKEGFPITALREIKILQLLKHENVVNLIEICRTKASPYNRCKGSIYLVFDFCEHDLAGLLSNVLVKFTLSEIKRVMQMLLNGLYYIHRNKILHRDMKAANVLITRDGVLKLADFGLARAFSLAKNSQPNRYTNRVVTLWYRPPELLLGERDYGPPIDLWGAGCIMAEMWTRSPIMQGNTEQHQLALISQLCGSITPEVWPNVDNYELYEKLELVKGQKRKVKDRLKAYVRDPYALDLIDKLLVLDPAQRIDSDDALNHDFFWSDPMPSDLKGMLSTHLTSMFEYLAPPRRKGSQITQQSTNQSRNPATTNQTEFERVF
T5 sequence (P00533 25-1210): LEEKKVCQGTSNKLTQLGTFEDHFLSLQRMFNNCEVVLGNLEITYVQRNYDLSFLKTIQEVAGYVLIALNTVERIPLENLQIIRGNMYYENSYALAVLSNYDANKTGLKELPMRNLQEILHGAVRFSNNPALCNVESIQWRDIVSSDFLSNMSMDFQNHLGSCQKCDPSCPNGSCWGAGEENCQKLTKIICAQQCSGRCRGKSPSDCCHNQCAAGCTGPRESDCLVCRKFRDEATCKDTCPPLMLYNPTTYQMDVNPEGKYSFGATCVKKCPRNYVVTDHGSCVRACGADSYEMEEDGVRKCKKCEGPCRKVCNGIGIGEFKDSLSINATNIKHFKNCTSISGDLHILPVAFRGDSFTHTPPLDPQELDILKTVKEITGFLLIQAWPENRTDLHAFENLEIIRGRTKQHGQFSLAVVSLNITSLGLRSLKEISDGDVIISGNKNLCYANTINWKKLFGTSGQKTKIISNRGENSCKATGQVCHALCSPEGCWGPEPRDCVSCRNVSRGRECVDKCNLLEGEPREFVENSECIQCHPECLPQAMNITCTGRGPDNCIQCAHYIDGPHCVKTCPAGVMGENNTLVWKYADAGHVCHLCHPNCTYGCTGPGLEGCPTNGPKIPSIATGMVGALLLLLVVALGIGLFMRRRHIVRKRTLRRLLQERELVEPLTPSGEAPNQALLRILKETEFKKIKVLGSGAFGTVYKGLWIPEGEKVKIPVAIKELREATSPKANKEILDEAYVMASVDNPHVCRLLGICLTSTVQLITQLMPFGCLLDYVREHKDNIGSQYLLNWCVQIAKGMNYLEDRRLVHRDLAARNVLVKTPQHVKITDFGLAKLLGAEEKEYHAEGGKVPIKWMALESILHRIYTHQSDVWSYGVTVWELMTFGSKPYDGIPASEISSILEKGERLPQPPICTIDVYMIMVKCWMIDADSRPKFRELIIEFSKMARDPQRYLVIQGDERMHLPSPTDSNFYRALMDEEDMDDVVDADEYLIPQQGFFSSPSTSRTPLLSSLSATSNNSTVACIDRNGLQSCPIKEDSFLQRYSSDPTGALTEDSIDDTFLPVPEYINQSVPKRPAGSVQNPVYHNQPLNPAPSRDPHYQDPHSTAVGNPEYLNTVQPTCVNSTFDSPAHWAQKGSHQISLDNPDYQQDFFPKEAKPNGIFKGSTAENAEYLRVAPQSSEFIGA

The Kd is the constant that tells how readily two partners part at equilibrium. The IC50 is the concentration that inhibits the measured activity by half. As usually defined, the GI50 is the concentration at which growth is held to half of that of the control. Take `CCc1cnn2c(NCc3ccc(OCCOCCOCCOCCOCCOC/C=C/C(=O)N4CCN(c5nc(OC[C@@H]6CCCN6C)nc6c5CCN(c5cccc7cccc(Cl)c57)C6)C[C@@H]4CC#N)nc3)cc(N3CCCCC3CCO)nc12` (stereo partly drawn) [Compound I-86, 2-[(2S)-4-[7-(8-chloro-1-naphthyl)-2-[[(2S)-1-methylpyrrolidin-2-yl]methoxy]-6,8-dihydro-5H-pyrido[3,4-d]pyrimidin-4-yl]-1-[(E)-4-[2-[2-[2-[2-[2-[[5-[[[3-ethyl-5-[2-(2-hydroxyethyl)-1-piperidyl]pyrazolo[1,5-a]pyrimidin-7-yl]amino]methyl]-2-pyridyl]oxy]ethoxy]ethoxy]ethoxy]ethoxy]ethoxy]but-2-enoyl]piperazin-2-yl]acetonitrile]: the Kd in assay [1] was less than 50 nM. Moreover, the IC50 in assay [2] is 100 to 1000 nM. For the same compound, the GI50 in assay [3] was less than 500 nM; in assay [4] it was 500 to 1500 nM.

As to `CCc1cnn2c(NCc3ccc(OCCOCCOCCOC4CCN(C/C=C/C(=O)N5CCN(c6nc(OC[C@@H]7CCCN7C)nc7c6CCN(c6cccc8cccc(Cl)c68)C7)C[C@@H]5CC#N)CC4)nc3)cc(N3CCCC[C@H]3CCO)nc12` [Compound I-90, 2-((S)-4-(7-(8-chloronaphthalen-1-yl)-2-(((S)-1-methylpyrrolidin-2-yl)methoxy)-5,6,7,8-tetrahydropyrido [3,4-d]pyrimidin-4-yl)-1-((E)-4-(4-(2-(2-(2-((5-(((3-ethyl-5-((S)-2-(2-hydroxyethyl)piperidin-1-yl)pyrazolo[1,5-a]pyrimidin-7-yl)amino)methyl)pyridin-2-yl)oxy)ethoxy)ethoxy)ethoxy)piperidin-1-yl)but-2-enoyl)piperazin-2-yl)acetonitrile], the dissociation constant Kd in assay [1] is less than 50 nM. Further, the half-maximal inhibitory concentration (IC50) in assay [2] was less than 100 nM. Moreover, the concentration for 50% growth inhibition (GI50) in assay [3] and in assay [4] was less than 500 nM in each case.

In the case of `CCc1cnn2c(NCc3ccc(OCCOCCOCCOCCOCCN(C)C/C=C/C(=O)N4CCN(c5nc(OC[C@@H]6CCCN6C)nc6c5CCN(c5cccc7cccc(Cl)c57)C6)C[C@@H]4CC#N)nc3)cc(N3CCCC[C@H]3CCO)nc12` [Compound I-92, 2-((S)-4-(7-(8-chloronaphthalen-1-yl)-2-(((S)-1-methylpyrrolidin-2-yl)methoxy)-5,6,7,8-tetrahydropyrido [3,4-d]pyrimidin-4-yl)-1-((E)-1-((5-(((3-ethyl-5-((S)-2-(2-hydroxyethyl)piperidin-1-yl)pyrazolo[1,5-a]pyrimidin-7-yl)amino)methyl)pyridin-2-yl)oxy)-15-methyl-3,6,9,12-tetraoxa-15-azanonadec-17-en-19-oyl)piperazin-2-yl)acetonitrile], the Kd in assay [1] was greater than 2500 nM. Further, the IC50 in assay [2] is less than 100 nM. Moreover, the GI50 in assay [3] was less than 500 nM; in assay [4], 500 to 1500 nM.

With `C=CC(=O)N[C@@H]1CN(c2nc(Nc3cn(CCOCCOCCOCCOCCOCCOCCNS(=O)(=O)c4ccc(Nc5ncc(Br)c(Nc6cccc(F)c6C(N)=O)n5)cc4)nc3OC)c3ncn(C)c3n2)C[C@H]1F` [Compound I-143, 2-[[5-bromo-2-[4-[2-[2-[2-[2-[2-[2-[2-[4-[[2-[(3R,4R)-3-fluoro-4-(prop-2-enoylamino)pyrrolidin-1-yl]-9-methyl-purin-6-yl]amino]-3-methoxy-pyrazol-1-yl]ethoxy]ethoxy]ethoxy]ethoxy]ethoxy]ethoxy]ethylsulfamoyl]anilino]pyrimidin-4-yl]amino]-6-fluoro-benzamide], the Kd in assay [1] is 500 to 2500 nM; in assay [5], less than 50 nM; in assay [6], less than 50 nM; in assay [7] it was less than 50 nM. Besides, the concentration for 50% growth inhibition (GI50) in assay [3] and in assay [4] was greater than 5000 nM each time.
